Key:
human recombinant HDAC1 = target: T1, human recombinant HDAC1 (Homo sapiens, UniProt Q13547); assay: HDAC1 enzyme activity inhibition assay (HDAC Fluorimetric Drug Discovery Kit); type: biochemical; settings: 30° C. 60 minutes
T1 construct: purchased Enzo Life Science BML-SE456
How it was run: (§1)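 Fluorimetric deacetylase assay: 5-fold serial compound dilutions, 0.3 μg recombinant human enzyme (HDAC1 or HDAC6, same protocol), 10 μM Fluor de Lys-SIRT1 substrate, 60 min at 30 °C. Signal developed 30 min, measured at 360/460 nm; IC50 values derived.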

human recombinant HDAC6 = target: T2, human recombinant HDAC6 (Homo sapiens, UniProt Q9UBN7); assay: HDAC6 enzyme activity inhibition assay (HDAC Fluorimetric Drug Discovery Kit); type: biochemical; settings: for HDAC6 selectivity (fold): HDAC6 over HDAC1; for IC50: human recombinant HDAC6, same protocol as HDAC1, read-out: HDAC6
T2 construct: purchased Calbiochem 382180
T2 sequence (Q9UBN7 1-1215): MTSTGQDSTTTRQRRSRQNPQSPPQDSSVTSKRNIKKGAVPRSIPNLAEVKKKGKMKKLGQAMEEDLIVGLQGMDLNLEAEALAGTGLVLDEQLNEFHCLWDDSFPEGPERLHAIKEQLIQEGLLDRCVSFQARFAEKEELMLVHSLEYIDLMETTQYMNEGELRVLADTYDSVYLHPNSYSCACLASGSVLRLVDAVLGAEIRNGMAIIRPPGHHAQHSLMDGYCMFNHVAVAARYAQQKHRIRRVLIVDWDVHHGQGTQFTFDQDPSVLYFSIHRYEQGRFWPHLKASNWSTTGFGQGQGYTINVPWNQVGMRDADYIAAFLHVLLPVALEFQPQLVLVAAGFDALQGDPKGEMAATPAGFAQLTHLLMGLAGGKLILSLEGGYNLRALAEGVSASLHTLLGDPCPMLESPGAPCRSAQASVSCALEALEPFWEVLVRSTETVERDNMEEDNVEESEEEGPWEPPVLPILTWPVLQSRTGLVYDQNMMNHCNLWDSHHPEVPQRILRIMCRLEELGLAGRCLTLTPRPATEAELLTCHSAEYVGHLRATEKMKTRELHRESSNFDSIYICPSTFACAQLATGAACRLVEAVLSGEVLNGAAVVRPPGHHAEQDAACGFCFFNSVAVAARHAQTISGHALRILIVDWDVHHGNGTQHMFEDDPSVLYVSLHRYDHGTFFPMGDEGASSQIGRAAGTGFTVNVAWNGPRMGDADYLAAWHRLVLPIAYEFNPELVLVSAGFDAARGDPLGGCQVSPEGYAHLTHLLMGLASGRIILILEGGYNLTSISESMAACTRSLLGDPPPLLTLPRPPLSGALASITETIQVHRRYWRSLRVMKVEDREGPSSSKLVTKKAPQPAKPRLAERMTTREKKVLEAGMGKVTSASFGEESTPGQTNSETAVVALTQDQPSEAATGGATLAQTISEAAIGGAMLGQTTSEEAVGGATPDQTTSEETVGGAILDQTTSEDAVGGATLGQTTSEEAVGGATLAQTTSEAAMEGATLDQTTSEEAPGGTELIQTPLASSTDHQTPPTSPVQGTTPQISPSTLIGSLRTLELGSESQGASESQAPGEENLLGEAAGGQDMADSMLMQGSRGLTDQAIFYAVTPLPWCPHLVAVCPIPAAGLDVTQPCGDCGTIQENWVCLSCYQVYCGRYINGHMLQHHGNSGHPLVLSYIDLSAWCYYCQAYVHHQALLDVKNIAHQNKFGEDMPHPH
How it was run: as §1

[1] = human recombinant HDAC1, Fluor de Lys substrate 10 μM

T1 sequence (Q13547 whole entry): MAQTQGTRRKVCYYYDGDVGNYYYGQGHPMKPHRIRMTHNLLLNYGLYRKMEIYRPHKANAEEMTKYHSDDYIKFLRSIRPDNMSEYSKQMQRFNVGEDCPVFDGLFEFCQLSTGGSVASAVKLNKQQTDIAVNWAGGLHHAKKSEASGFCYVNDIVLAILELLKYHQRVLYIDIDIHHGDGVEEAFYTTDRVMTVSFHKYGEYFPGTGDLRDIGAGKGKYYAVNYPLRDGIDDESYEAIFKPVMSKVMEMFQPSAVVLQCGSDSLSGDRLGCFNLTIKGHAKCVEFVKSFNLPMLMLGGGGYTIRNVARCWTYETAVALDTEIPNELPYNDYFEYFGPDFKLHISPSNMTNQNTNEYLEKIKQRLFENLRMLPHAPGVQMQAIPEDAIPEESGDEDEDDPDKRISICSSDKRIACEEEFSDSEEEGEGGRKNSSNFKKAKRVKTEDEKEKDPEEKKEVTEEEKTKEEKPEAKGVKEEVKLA

IC50 (human recombinant HDAC1; [1])	HDAC6 selectivity (fold) (human recombinant HDAC6)	IC50 (human recombinant HDAC6)	IC50 (human recombinant HDAC1; human recombinant HDAC1, Fluor de Lys substrate)	SMILES
27900 nM	1064 fold	26 nM	–	CCN1CCN(C(=O)N(Cc2ccc(-c3nnc(C(F)F)o3)cn2)c2cccc(Cl)c2)CC1 [Compound 21879, N-(3-Chlorophenyl)-N-((5-(5-(difluoromethyl)-1,3,4-oxadiazol-2-yl)pyridin-2-yl)methyl)-4-ethylpiperazine-1-carboxamide]
4040 nM	25 fold	157 nM	–	O=C(N1CCS(=O)(=O)CC1)N(Cc1ccc(-c2nnc(C(F)(F)F)o2)cc1)c1ccc(-c2ccoc2)cc1 [Compound 21491, N-(4-(furan-3-yl)phenyl)-N-(4-(5-(trifluoromethyl)-1,3,4-oxadiazol-2-yl)benzyl)thiomorpholine-4-carboxamide 1,1-dioxide]
24800 nM	80 fold	309 nM	–	CCN1CCN(C(=O)N(Cc2ccc(-c3nnc(C(F)(F)F)o3)cc2F)c2ccc(C)c(Cl)c2)CC1 [Compound 21660, N-(3-chloro-4-methylphenyl)-4-ethyl-N-(2-fluoro-4-(5-(trifluoromethyl)-1,3,4-oxadiazol-2-yl)benzyl)piperazine-1-carboxamide]
20500 nM	55 fold	374 nM	–	O=C(N1CC[C@H](F)C1)N(Cc1ccc(-c2nnc(C(F)(F)F)o2)cc1F)c1ccc(F)c(Cl)c1 [Compound 21666, (S)—N-(3-chloro-4-fluorophenyl)-3-fluoro-N-(2-fluoro-4-(5-(trifluoromethyl)-1,3,4-oxadiazol-2-yl)benzyl)pyrrolidine-1-carboxamide]
37600 nM	640 fold	59 nM	–	CCN1CCN(C(=O)N(Cc2ccc(-c3nnc(C(F)F)o3)cc2F)c2ccc(OC)cc2)CC1 [Compound 21893, N-(4-(5-(Difluoromethyl)-1,3,4-oxadiazol-2-yl)-2-fluorobenzyl)-4-ethyl-N-(4-methoxyphenyl)piperazine-1-carboxamide]
–	446 fold	103 nM	46000 nM	O=C(N1CCN(C2COC2)CC1)N(Cc1ccc(-c2nnc(C(F)F)o2)cn1)c1ccc(F)cc1 [Compound 21941, N-((5-(5-(Difluoromethyl)-1,3,4-oxadiazol-2-yl)pyridin-2-yl)methyl)-N-(4-fluorophenyl)-4-(oxetan-3-yl)piperazine-1-carboxamide]
70200 nM	1811 fold	39 nM	–	O=C(N1CCOCC1)N(Cc1ccc(-c2nnc(C(F)F)o2)cn1)c1ccc(Cl)cc1 [Compound 21847, N-(4-chlorophenyl)-N-((5-(5-(difluoromethyl)-1,3,4-oxadiazol-2-yl)pyridin-2-yl)methyl) morpholine-4-carboxamide]
3380 nM	12 fold	286 nM	–	O=C(N1CCS(=O)(=O)CC1)N(Cc1ccc(-c2nnc(C(F)(F)F)o2)cc1)c1cccc(-c2ccoc2)c1 [Compound 21435, N-(3-(furan-3-yl)phenyl)-N-(4-(5-(trifluoromethyl)-1,3,4-oxadiazol-2-yl)benzyl)thiomorpholine-4-carboxamide 1,1-dioxide]
40600 nM	164 fold	247 nM	–	O=C(N1CCS(=O)(=O)CC1)N(Cc1ccc(-c2nnc(C(F)(F)F)o2)cc1F)c1ccc(CN2CCN(C3COC3)CC2)cc1 [Compound 21898, N-(2-fluoro-4-(5-(trifluoromethyl)-1,3,4-oxadiazol-2-yl)benzyl)-N-(4-((4-(oxetan-3-yl)piperazin-1-yl)methyl)phenyl)thiomorpholine-4-carboxamide 1,1-dioxide]
15700 nM	153 fold	102 nM	–	CCN1CCN(C(=O)N(Cc2ccc(-c3nnc(C(F)(F)F)o3)cc2F)c2cccc(F)c2F)CC1 [Compound 21659, N-(2,3-difluorophenyl)-4-ethyl-N-(2-fluoro-4-(5-(trifluoromethyl)-1,3,4-oxadiazol-2-yl)benzyl)piperazine-1-carboxamide]
9130 nM	28 fold	321 nM	–	CCN1CCN(C(=O)N(Cc2ccc(-c3nnc(C(F)(F)F)o3)cc2)c2cccc(OC)c2)CC1 [Compound 21871, 4-Ethyl-N-(3-methoxyphenyl)-N-(4-(5-(trifluoromethyl)-1,3,4-oxadiazol-2-yl)benzyl)piperazine-1-carboxamide]
2920 nM	31 fold	93 nM	–	O=C(N1CCS(=O)(=O)CC1)N(Cc1ccc(-c2nnc(C(F)(F)F)o2)cc1F)c1ccc(-c2cccnc2)cc1 [Compound 21517, N-(2-fluoro-4-(5-(trifluoromethyl)-1,3,4-oxadiazol-2-yl)benzyl)-N-(4-(pyridin-3-yl)phenyl)thiomorpholine-4-carboxamide 1,1-dioxide]
